Target: T1, TedJ (Streptomyces sp. WAC04657, UniProt Z9VZN5SQU4)
T1 construct: N-terminal hexa-histidine tag, recombinant in E. coli, purified; homodimer
T1 sequence (Z9VZN5SQU4 20-510): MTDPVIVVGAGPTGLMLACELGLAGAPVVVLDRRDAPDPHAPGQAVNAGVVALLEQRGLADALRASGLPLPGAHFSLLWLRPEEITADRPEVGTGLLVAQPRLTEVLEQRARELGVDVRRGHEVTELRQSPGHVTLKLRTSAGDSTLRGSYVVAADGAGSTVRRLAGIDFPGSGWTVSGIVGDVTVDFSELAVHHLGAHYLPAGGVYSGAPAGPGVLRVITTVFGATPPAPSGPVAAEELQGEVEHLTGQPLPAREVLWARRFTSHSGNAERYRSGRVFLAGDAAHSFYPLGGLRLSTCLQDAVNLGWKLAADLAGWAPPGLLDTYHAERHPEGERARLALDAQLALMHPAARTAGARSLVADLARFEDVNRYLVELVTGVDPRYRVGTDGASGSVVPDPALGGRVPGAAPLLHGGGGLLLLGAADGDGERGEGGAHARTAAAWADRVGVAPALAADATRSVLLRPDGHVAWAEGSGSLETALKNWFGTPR
Test: X-ray crystal structure ([…] Å); MS of denatured protein; absorbance spectrum
Type: binding
Settings: non-covalently bound, co-purified; proposed structural role

Structure (SMILES): Cc1cc2nc3c(=O)[nH]c(=O)nc-3n(C[C@H](O)[C@H](O)[C@H](O)COP(=O)(O)OP(=O)(O)OC[C@H]3O[C@@H](n4cnc5c(N)ncnc54)[C@H](O)[C@@H]3O)c2cc1C [FAD]
- X-ray crystal structure (1.6 Å); MS of denatured protein; absorbance spectrum: showing the enzyme active site and non-covalently bound FAD molecule
